The assay addresses T1, HPK1 (Homo sapiens, UniProt Q92918).
T1 construct: A HiBiT tag was introduced by CRISPR on the N terminus of HPK1 in Jurkat cells; host or cells: Jurkat cells (ATCC TIB-152), monoclonal line with CRISPR knock-in of HiBiT at the endogenous HPK1 locus
The assay is described as follows: HPK1 Cellular HiBit Degradation Assay. It is filed as cell-based. The following applies: HiBiT HPK1 Jurkat cells, 24 hrs; for DC50: concentration at which 50% of HPK1 was remaining, read-out: DC50 Category; for Dmax: Jurkat, maximum degradation vs DMSO vehicle control, read-out: Dmax Category. The essentials:
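Jurkat cells with CRISPR knock-in N-terminal HiBiT-HPK1 were treated with CTMs (11-point, 3.16-fold, 10 uM to 0.1 nM final) for 24 hrs at 37° C. HiBiT lytic luminescence, with parental Jurkat as background and DMSO as 100%, gave % HPK1 remaining; four-parameter fit yielded DC50 and Dmax (100 minus lowest % remaining).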
In general terms: HiBiT is a short tag that completes a luciferase, so light tracks the accessible tagged protein.

Structures are written as SMILES.

T1 sequence (Q92918 whole entry): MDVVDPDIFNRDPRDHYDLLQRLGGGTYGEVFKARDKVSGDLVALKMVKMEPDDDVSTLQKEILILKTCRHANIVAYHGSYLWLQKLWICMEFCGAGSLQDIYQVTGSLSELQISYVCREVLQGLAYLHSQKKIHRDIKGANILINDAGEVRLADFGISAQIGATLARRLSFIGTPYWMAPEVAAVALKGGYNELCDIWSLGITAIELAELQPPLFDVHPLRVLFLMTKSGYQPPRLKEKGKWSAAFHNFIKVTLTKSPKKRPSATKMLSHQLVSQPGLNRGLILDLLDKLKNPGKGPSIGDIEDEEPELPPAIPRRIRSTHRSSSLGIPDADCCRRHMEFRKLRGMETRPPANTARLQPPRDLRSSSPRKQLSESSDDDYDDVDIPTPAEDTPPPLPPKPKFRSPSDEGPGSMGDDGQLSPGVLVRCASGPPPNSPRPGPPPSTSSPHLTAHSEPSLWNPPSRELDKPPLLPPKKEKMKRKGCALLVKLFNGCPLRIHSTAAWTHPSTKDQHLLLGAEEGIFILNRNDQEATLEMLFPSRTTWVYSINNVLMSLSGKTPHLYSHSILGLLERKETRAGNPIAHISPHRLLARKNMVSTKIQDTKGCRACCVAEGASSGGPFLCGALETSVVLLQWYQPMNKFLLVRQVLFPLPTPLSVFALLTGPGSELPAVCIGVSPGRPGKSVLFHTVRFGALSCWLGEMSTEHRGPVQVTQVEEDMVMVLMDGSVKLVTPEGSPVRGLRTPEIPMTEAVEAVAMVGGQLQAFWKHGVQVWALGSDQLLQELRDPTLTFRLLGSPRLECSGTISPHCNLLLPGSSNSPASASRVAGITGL

As a reminder, the DC50 is the midpoint of the concentration-degradation curve. The Dmax is the largest share of the target that was removed. Turning to `CC(C)n1cnc2cc(-c3ccc4c(c3)N([C@H]3C[C@@H](N5CCCCC5)C3)C(=O)C43CCN(CC(=O)N(C)C4CCN(C(=O)C5CCN(c6ccc(C7CCC(=O)NC7=O)cn6)CC5)CC4)CC3)nc(NC3CC3)c21` (stereo partly drawn) [Example 200, 2-{6-[4-(cyclopropylamino)-3-(propan-2-yl)-3H-imidazo[4,5-c]pyridin-6-yl]-2-oxo-1-[(1S,3S)-3-(piperidin-1-yl)cyclobutyl]-1,2-dihydrospiro[indole-3,4′-piperidin]-1′-yl}-N-(1-{1-[5-(2,6-dioxopiperidin-3-yl)pyridin-2-yl]piperidine-4-carbonyl}piperidin-4-yl)-N-methylacetamide], the 50% degradation concentration (DC50) was in the range of 100 to 500 nM and the Dmax was above 85%.
On to `CC(C)n1cnc2cc(-c3ccc4c(c3)N([C@H]3C[C@@H](N5CCCCC5)C3)C(=O)C43CCN(C(=O)C4CCN(C(=O)[C@H]5CCN(c6ccc(C7CCC(=O)NC7=O)cn6)C5)CC4)CC3)nc(Nc3ccccc3F)c21` (mixture of isomers) [Example 65, (3RS)-3-{6-[(3S)-3-{4-[(6-{4-[(2-fluorophenyl)amino]-3-(propan-2-yl)-3H-imidazo[4,5-c]pyridin-6-yl}-2-oxo-1-[(1S,3S)-3-(piperidin-1-yl)cyclobutyl]-1,2-dihydrospiro[indole-3,4′-piperidin]-1′-yl)carbonyl]piperidine-1-carbonyl}pyrrolidin-1-yl]pyridin-3-yl}piperidine-2,6-dione], for which the DC50 lay within 100 to 500 nM and the Dmax lay within 70 to 85%.
As for `CC(C)n1cnc2cc(-c3ccc4c(c3)N([C@H]3C[C@@H](N5CCC[C@@H](F)C5)C3)C(=O)C43CCN(C(=O)C4(C)CCN(C(=O)C5CCN(c6ccc(C7CCC(=O)NC7=O)cn6)CC5)CC4)CC3)nc(NC3CC3)c21` (mixture of isomers) [Example 219, (3RS)-3-(6-{4-[4-({6-[4-(cyclopropylamino)-3-(propan-2-yl)-3H-imidazo[4,5-c]pyridin-6-yl]-2-oxo-1-[(1S,3S)-3-[(3R)-3-fluoropiperidin-1-yl]cyclobutyl]-1,2-dihydrospiro[indole-3,4′-piperidin]-1′-yl}carbonyl)-4-methylpiperidine-1-carbonyl]piperidin-1-yl}pyridin-3-yl)piperidine-2,6-dione], the 50% degradation concentration (DC50) lay in the range of 100 to 500 nM and the Dmax fell in the range of 70 to 85%.
On to `CC(C)n1cnc2cc(-c3ccc4c(c3)N([C@H]3C[C@@H](N5CCCCC5)C3)C(=O)C43CCN(C(=O)C4CCN(C(=O)[C@H]5CC[C@H](Nc6cc(C7CCC(=O)NC7=O)ccn6)CC5)CC4)CC3)nc(Nc3ccccc3F)c21` (mixture of isomers) [Example 52, (3RS)-3-(2-{[(1R,4R)-4-{4-[(6-{4-[(2-fluorophenyl)amino]-3-(propan-2-yl)-3H-imidazo[4,5-c]pyridin-6-yl}-2-oxo-1-[(1S,3S)-3-(piperidin-1-yl)cyclobutyl]-1,2-dihydrospiro[indole-3,4′-piperidin]-1′-yl)carbonyl]piperidine-1-carbonyl}cyclohexyl]amino}pyridin-4-yl)piperidine-2,6-dione], for which the 50% degradation concentration (DC50) lay within 500 to 1000 nM and the greatest degradation seen (Dmax) lay within 50 to 70%.
For `CC(C)n1cnc2cc(-c3ccc4c(c3)N([C@H]3C[C@@H](N5CCCCC5)C3)C(=O)C43CCN(C(=O)C4CCN(C(=O)[C@H]5CC[C@H](N(C)c6ccc(C7CCC(=O)NC7=O)cn6)CC5)CC4)CC3)nc(NC3CC3)c21` (mixture of isomers) [Example 130, (3RS)-3-(6-{methyl[(1R,4R)-4-[4-({6-[4-(cyclopropylamino)-3-(propan-2-yl)-3H-imidazo[4,5-c]pyridin-6-yl]-2-oxo-1-[(1S,3S)-3-(piperidin-1-yl)cyclobutyl]-1,2-dihydrospiro[indole-3,4′-piperidin]-1′-yl}carbonyl)piperidine-1-carbonyl]cyclohexyl]amino}pyridin-3-yl)piperidine-2,6-dione], the half-maximal degradation concentration (DC50) is below 100 nM and the maximal degradation (Dmax) fell in the range of 50 to 70%.
Take `CC(C)n1cnc2cc(-c3ccc4c(c3)N([C@H]3C[C@@H](N5CCCCC5)C3)C(=O)C43CCN(C(=O)[C@]4(C)CCN(C(=O)C5CCN(c6ccc([C@@H]7CCC(=O)NC7=O)cc6)CC5)C4)CC3)nc(NC3CC3)c21` (racemic) [Example 244, (3RS)-3-(4-{4-[(3R)-3-({6-[4-(cyclopropylamino)-3-(propan-2-yl)-3H-imidazo[4,5-c]pyridin-6-yl]-2-oxo-1-[(1S,3S)-3-(piperidin-1-yl)cyclobutyl]-1,2-dihydrospiro[indole-3,4′-piperidin]-1′-yl}carbonyl)-3-methylpyrrolidine-1-carbonyl]piperidin-1-yl}phenyl)piperidine-2,6-dione]: the DC50 was below 100 nM and the Dmax was in the range of 70 to 85%.
Consider `CC(C)n1cnc2cc(-c3ccc4c(c3)N([C@H]3C[C@@H](N5CCCCC5)C3)C(=O)C43CCN(C(=O)C4(C)CCN(C(=O)[C@H]5CC[C@H](Oc6ccc(C7CCC(=O)NC7=O)cn6)CC5)CC4)CC3)nc(NC3CC3)c21` (mixture of isomers) [Example 104, (3RS)-3-(6-{[(1R,4R)-4-[4-({6-[4-(cyclopropylamino)-3-(propan-2-yl)-3H-imidazo[4,5-c]pyridin-6-yl]-2-oxo-1-[(1S,3S)-3-(piperidin-1-yl)cyclobutyl]-1,2-dihydrospiro[indole-3,4′-piperidin]-1′-yl}carbonyl)-4-methylpiperidine-1-carbonyl]cyclohexyl]oxy}pyridin-3-yl)piperidine-2,6-dione], for which the half-maximal degradation concentration (DC50) is below 100 nM and the greatest degradation seen (Dmax) was 70 to 85%.
Regarding `CC(C)n1cnc2cc(-c3ccc4c(c3)N([C@H]3C[C@@H](N5CCCCC5)C3)C(=O)C43CCN(C(=O)C4(C)CCN(C(=O)[C@H]5CC[C@H](Nc6ccc(N7CCC(=O)NC7=O)cn6)CC5)CC4)CC3)nc(NC3CC3)c21` [Example 192, 1-(6-{[(1R,4R)-4-[4-({6-[4-(cyclopropylamino)-3-(propan-2-yl)-3H-imidazo[4,5-c]pyridin-6-yl]-2-oxo-1-[(1S,3S)-3-(piperidin-1-yl)cyclobutyl]-1,2-dihydrospiro[indole-3,4′-piperidin]-1′-yl}carbonyl)-4-methylpiperidine-1-carbonyl]cyclohexyl]amino}pyridin-3-yl)-1,3-diazinane-2,4-dione], the half-maximal degradation concentration (DC50) was below 100 nM and the Dmax lay in the range of 70 to 85%.
In the same order, the values of `CC(C)n1cnc2cc(-c3ccc4c(c3)N([C@H]3C[C@@H](N5CCCCC5)C3)C(=O)C43CCN(C(=O)C4(C)CCN(C(=O)C5CCN(c6ccc(N7CCC(=O)NC7=O)cn6)CC5)CC4)CC3)nc(Nc3ccncc3F)c21` [Example 117, 1-[6-(4-{4-[(6-{4-[(3-fluoropyridin-4-yl)amino]-3-(propan-2-yl)-3H-imidazo[4,5-c]pyridin-6-yl}-2-oxo-1-[(1S,3S)-3-(piperidin-1-yl)cyclobutyl]-1,2-dihydrospiro[indole-3,4′-piperidin]-1′-yl)carbonyl]-4-methylpiperidine-1-carbonyl}piperidin-1-yl)pyridin-3-yl]-1,3-diazinane-2,4-dione] are below 100 nM and above 85%.

These data come from patent US12091426B2, “Bifunctional degraders of hematopoietic progenitor kinase and therapeutic uses thereof” (Nurix Therapeutics, Inc., priority 2021, dated 2024).
